Test results taken from US20250032477A1, “COMPOUNDS, PHARMACEUTICAL COMPOSITIONS, AND METHODS FOR THE TREATMENT, PREVENTION, OR MANAGEMENT OF HYPERPROLIFERATIVE DISORDERS” (VINCERX PHARMA GMBH, priority 2021, published 2025).
Read-outs that look alike come from different tables or passages of the source.

Key:
786-O [1] = assay: Cytotoxicity in vitro in the presence and absence of elastase (MTT); assay type: cell-based, human; conditions: Homo sapiens, 786-0, 786-O cells, 72 h, MTT
Description: (§1) Cultivation of cells was performed according to standard procedures with the media recommended by the provider. The cells, in a total volume of 100 μL, were seeded in a 96-well plate with a white bottom (#3610). After a 24 h incubation period at 37° C. and […], the medium was exchanged by adding 90 μL fresh medium. The treatment started by adding the test compound in 10 μL of culture medium to the cells in triplicates. Concentrations ranging from 10^−5 M to 10^−13 M were chosen. Two identically treated sets of samples were prepared. One set was treated with the test compound alone, whereas to the second set the compound and 10 nM elastase was added followed by a 72 h incubation period at 37° C. and 5% CO2. The proliferation was detected using the MTT assay (ATCC). At the end of the incubation period the MTT reagent was added to all samples for 4 h. Lysis of the cells followed by addition of the detergent was done overnight. The formed dye was detected at 570 nm. The proliferation of untreated but otherwise identically handled cells was define as the […].

HT29 [2] = assay: as above; assay type: cell-based, human; conditions: Homo sapiens, HT-29, HT29 cells, 72 h, MTT
Description: as §1

NCI H292 [3] = assay: as above; assay type: cell-based, human; conditions: Homo sapiens, NCI H292 cells, 72 h, MTT
Description: as §1

SUM149 [4] = assay: as above; assay type: cell-based; conditions: SUM149 cells, 72 h, MTT
Description: as §1

in vitro = conditions: human, Caco-2
Description: (§2) Caco-2: The cell permeability of a substance can be investigated by means of in vitro testing in a flux assay using Caco-2 cells [M. D. Troutman and D. R. Thakker, Pharm. Res. 20 (8), 1210-1224 (2003)]. For this purpose, the cells were cultured for 15-16 days on 24-well filter plates. For the determination of permeation, the respective test substance was applied in a HEPES buffer to the cells either apically (A) or basally (B) and incubated for 2 hours. After 0 hours and after 2 hours, samples were taken from the cis and trans compartments. The samples were separated by HPLC (Agilent 1200, Böblingen, Germany) using reverse phase columns. The HPLC system was coupled via a Turbo Ion Spray Interface to a Triple Quadropol mass spectrometer API 4000 (AB SCIEX Deutschland GmbH, Darmstadt, Germany). The permeability was evaluated on the basis of a Papp value, which was calculated using the formula published by Schwab et al. [D. Schwab et al., J. Med. Chem. 46, 1716-1725 (2003)]. A substance was classified as actively transported when the ratio of Papp (B-A) to Papp (A-B) (efflux ratio) was >2 or <0.5. Compounds with an efflux ratio of 0.5-2 are considered not actively transported. In Table 5, reference compounds are provided for comparison. Ref 1 is exatecan mesylate, Ref 2 is DXd, and Ref 3 is 10,11-methylenedioxy-camptothecin (FL118).

HT29 [5] = assay: Cytotoxicity in vitro in the presence and absence of legumain; assay type: cell-based; conditions: Homo sapiens
NCI H292 [6] = assay: as above; assay type: cell-based; conditions: Homo sapiens
SUM149 [7] = assay: as above; assay type: cell-based
786-O [8] = assay: Cytotoxicity assay (Version 2), automated, AC50, with or without elastase; assay type: cell-based, human; conditions: Homo sapiens, 786-0, 786-O cells, Version 2, activity concentration at −50%
Description: as §1
(§3) The Cytotoxicity assay (Version 2) was performed as above described. Some changes were applied as the assays were performed in an automated fashion and the IC50 values determination was changed. Here the change in metabolic activity of the cells, in percent, was calculated by normalization of the measured values to the absorbance values of medium containing wells without cells (=−100%) and the absorbance of the DMSO-treated cells (=0%). AC50 values (activity concentration at −50%) were determined by means of a 4 parameter Hill-fit using GeneData Screener software.

HT29 [9] = assay: as above; assay type: cell-based, human; conditions: Homo sapiens, HT-29, HT29 cells, Version 2, activity concentration at −50%
Description: as §1, §3

NCI H292 [10] = assay: as above; assay type: cell-based, human; conditions: Homo sapiens, NCI H292 cells, Version 2, activity concentration at −50%
Description: as §1, §3

SUM149 [11] = assay: as above; assay type: cell-based; conditions: SUM149 cells, Version 2, activity concentration at −50%
Description: as §1, §3

Caco-2 cells = assay: Caco-2 flux assay for cellular permeability; conditions: Caco-2 cells; for Caco-2 Flux Papp A-B: apical to basal, 2 hours, HEPES buffer; for Caco-2 Flux Efflux ratio: ratio of Papp (B-A) to Papp (A-B), actively transported when >2 or <0.5
Description: as §2

[12] = with 10 nM elastase, read-out: 786-O IC50 w elastase
[13] = without elastase, read-out: 786-O IC50 w/o
[14] = with 10 nM elastase, read-out: HT29 IC50 w elastase
[15] = without elastase, read-out: HT29 IC50 w/o
[16] = with 10 nM elastase, read-out: NCI H292 IC 50 w elastase
[17] = without elastase, read-out: NCI H292 IC 50 w/o
[18] = with 10 nM elastase, read-out: SUM149 IC50 w elastase
[19] = without elastase, read-out: SUM149 IC50 w/o

Molecule | IC50 (786-O [1]; [12]) [nM] | IC50 (786-O [1]; [13]) [nM] | IC50 (HT29 [2]; [14]) [nM] | IC50 (HT29 [2]; [15]) [nM] | IC50 (NCI H292 [3]; [16]) [nM] | IC50 (NCI H292 [3]; [17]) [nM] | IC50 (SUM149 [4]; [18]) [nM] | IC50 (SUM149 [4]; [19]) [nM] | Papp A→B at 2 h (in vitro) [×10⁻⁶ cm/s] | efflux ratio at 2 h (in vitro) | Caco-2 Flux Papp A-B (Caco-2 cells) | Caco-2 Flux Efflux ratio (Caco-2 cells) | also measured
CC[C@@]1(O)C(=O)OCc2c1cc1n(c2=O)Cc2c-1nc1cc(F)c(C)c3c1c2[C@@H](NC(C)=O)CC3 [Compound 7, N-[(1S,9S)-9-ethyl-5-fluoro-9-hydroxy-4-methyl-10,13-dioxo-2,3,9,10,13,15-hexahydro-1H,12H-benzo[de]pyrano[3′,4′:6,7]indolizino[1,2-b]quinolin-1-yl]acetamide] | 0.01 to 0.1 | 0.01 to 0.1 | 0.01 to 0.1 | 0.01 to 0.1 | 0.01 to 0.1 | 0.01 to 0.1 | < 0.01 | < 0.01 | 0.1 to 0.9 | > 2 | – | – | –
CC[C@@]1(O)C(=O)OCc2c1cc1n(c2=O)Cc2c-1nc1cc(F)c(C)c3c1c2[C@@H](NC(=O)C(F)(F)F)CC3 [Compound 8, N-[(1S,9S)-9-ethyl-5-fluoro-9-hydroxy-4-methyl-10,13-dioxo-2,3,9,10,13,15-hexahydro-1H,12H-benzo[de]pyrano[3′,4′:6,7]indolizino[1,2-b]quinolin-1-yl]-2,2,2-trifluoroacetamide] | 0.01 to 0.1 | 0.01 to 0.1 | 0.01 to 0.1 | 0.01 to 0.1 | 0.01 to 0.1 | 0.01 to 0.1 | < 0.01 | < 0.01 | 1 to 9.9 | > 2 | – | – | –
CC[C@@]1(O)C(=O)OCc2c1cc1n(c2=O)Cc2c-1nc1cc(F)c(C)c3c1c2[C@@H](NC(=O)Cc1ccncc1)CC3 [Compound 9, N-[(1S,9S)-9-ethyl-5-fluoro-9-hydroxy-4-methyl-10,13-dioxo-2,3,9,10,13,15-hexahydro-1H,12H-benzo[de]pyrano[3′,4′:6,7]indolizino[1,2-b]quinolin-1-yl]-2-(pyridin-4-yl)acetamide] | 0.1 to 1 | 0.1 to 1 | 0.1 to 1 | 1.1 to 10 | 0.1 to 1 | 0.1 to 1 | 0.01 to 0.1 | 0.01 to 0.1 | 0.1 to 0.9 | > 2 | – | – | –
CC[C@@]1(O)C(=O)OCc2c1cc1n(c2=O)Cc2c-1nc1cc(F)c(C)c3c1c2[C@@H](NC(=O)[C@H](CC(N)=O)NC(=O)Cc1ccncc1)CC3 [Compound 10, N^1-[(1S,9S)-9-ethyl-5-fluoro-9-hydroxy-4-methyl-10,13-dioxo-2,3,9,10,13,15-hexahydro-1H,12H-benzo[de]pyrano[3′,4′:6,7]indolizino[1,2-b]quinolin-1-yl]-N^2-[(pyridin-4-yl)acetyl]-L-aspartamide] | – | – | – | – | – | – | – | – | – | – | – | – | IC50 (HT29 [5]; HT-29, read-out: HT29 IC50 w legumain): > 100 nM; IC50 (HT29 [5]; HT-29, read-out: HT29 IC50 w/o): > 100 nM; IC50 (NCI H292 [6]; NCI-H292, read-out: NCI H292 IC50 w legumain): > 100 nM; IC50 (NCI H292 [6]; NCI-H292, read-out: NCI H292 IC50 w/o): > 100 nM; IC50 (SUM149 [7]; SUM149, read-out: SUM149 IC50 w legumain): > 100 nM; IC50 (SUM149 [7]; SUM149, read-out: SUM149 IC50 w/o): > 100 nM
CCN[C@H]1CCc2c(C)c(F)cc3nc4c(c1c23)Cn1c-4cc2c(c1=O)COC(=O)[C@]2(O)CC.O=C(O)C(F)(F)F [Compound 16, trifluoroacetic acid (1S,9S)-9-ethyl-1-(ethylamino)-5-fluoro-9-hydroxy-4-methyl-1,2,3,9,12,15-hexahydro-10H,13H-benzo[de]pyrano[3′,4′:6,7] indolizino[1,2-b]quinoline-10,13-dione (1/1)] | 0.1 to 1 | 0.1 to 1 | 0.1 to 1 | 0.1 to 1 | 0.1 to 1 | 0.1 to 1 | 0.01 to 0.1 | 0.01 to 0.1 | 10 to 99.9 | 0.5 to 2 | – | – | –
CCN(CC)[C@H]1CCc2c(C)c(F)cc3nc4c(c1c23)Cn1c-4cc2c(c1=O)COC(=O)[C@]2(O)CC [Compound 17, (1S,9S)-1-(diethylamino)-9-ethyl-5-fluoro-9-hydroxy-4-methyl-1,2,3,9,12,15-hexahydro-10H,13H-benzo[de]pyrano[3′,4′:6,7]indolizino[1,2-b]quinoline-10,13-dione] | 1.1 to 10 | 1.1 to 10 | 1.1 to 10 | 1.1 to 10 | 1.1 to 10 | 1.1 to 10 | 0.1 to 1 | 0.1 to 1 | 10 to 99.9 | 0.5 to 2 | – | – | AC50 (786-O [8]; with elastase, read-out: 786-O AC50 +elastase): 1.1 to 10 nM; AC50 (786-O [8]; without elastase, read-out: 786-O AC50 −elastase): 1.1 to 10 nM; AC50 (HT29 [9]; with elastase, read-out: HT29 AC50 +elastase): 11 to 100 nM; AC50 (HT29 [9]; without elastase, read-out: HT29 AC50 −elastase): 11 to 100 nM; AC50 (NCI H292 [10]; with elastase, read-out: NCI H292 AC50 +elastase): 1.1 to 10 nM; AC50 (NCI H292 [10]; without elastase, read-out: NCI H292 AC50 −elastase): 1.1 to 10 nM; AC50 (SUM149 [11]; with elastase, read-out: SUM149 AC50 +elastase): 1.1 to 10 nM; AC50 (SUM149 [11]; without elastase, read-out: SUM149 AC50 −elastase): 1.1 to 10 nM
CC[C@@]1(O)C(=O)OCc2c1cc1n(c2=O)Cc2c-1nc1cc(F)c(C)c3c1c2[C@@H](NC(=O)CO)CC3 [Ref 2, DXd, reference compound] | – | – | – | – | – | – | – | – | – | – | AA (AA: 1-9) | A (A: actively transported) | –
CC[C@@]1(O)C(=O)OCc2c1cc1n(c2=O)Cc2cc3cc4c(cc3nc2-1)OCO4 [Ref 3, 10,11-methylenedioxy-camptothecin, reference compound] | – | – | – | – | – | – | – | – | – | – | CC (CC: 100-999) | B (B: not actively transported) | –
exatecan mesylate [Ref 1, reference compound] | – | – | – | – | – | – | – | – | – | – | CC (CC: 100-999) | B (B: not actively transported) | –
